Experimental findings from PubChem BioAssay (NCI) are described below.

Test systems include K-562 leukemia; UO-31 renal; ACHN renal; SF-539 CNS; RPMI-8226 leukemia; IGROV1 ovarian; EKVX NSCLC; SK-MEL-2 melanoma; M14 melanoma; NCI-H226 lung.
Common to all, as to experiment: NCI anticancer screen, dose series, 48 h

Values joined by “and” are separate entries in the source; they are usually repeats but may differ in a detail not shown here. Identical values can stand only once.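 In this assay, cells in 96-well plates receive the compound at five concentrations for 48 hours. Endpoints are linearly interpolated between the surrounding concentrations. GI50 marks 50% less growth. Definition used: TGI = concentration required for complete inhibition of growth.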

On to `CCCCNC(=O)Oc1ccc(/C(=C(/CC)Cc2ccccc2)c2ccc(OCCN3CCCCCC3)cc2)cc1`, for which the GI50 is 16.7 µM in the test with K-562 leukemia; 18.9 µM in the test on UO-31 renal; 18.6 µM with ACHN renal; 17 µM in the test with SF-539 CNS; 24 µM with RPMI-8226 leukemia; 30.5 µM in the test with IGROV1 ovarian. The GI50 in the test on EKVX NSCLC was 76.8 µM; in the test on SK-MEL-2 melanoma it was 71.9 µM; in the test with M14 melanoma, 17.7 µM; with NCI-H226 lung, over 100 µM. Moreover, the TGI with K-562 leukemia is 46.9 µM; in the test with UO-31 renal it was 46.3 µM; with ACHN renal, 41.6 µM; with SF-539 CNS it was 31.3 µM; in the test with RPMI-8226 leukemia it was 52.8 µM; in the test with IGROV1 ovarian, over 100 µM. Moreover, the TGI was over 100 µM in the test on EKVX NSCLC, over 100 µM in the test on SK-MEL-2 melanoma, 33.9 µM with M14 melanoma and over 100 µM with NCI-H226 lung.

Take `O=C(O)c1cccc(/C=C/c2ccccc2)c1`: the TGI in the test on UO-31 renal, in the test with ACHN renal, in the test on SF-539 CNS, with RPMI-8226 leukemia, in the test on IGROV1 ovarian and in the test on EKVX NSCLC was over 100 µM each time. The TGI with SK-MEL-2 melanoma, in the test on M14 melanoma and with NCI-H226 lung was over 100 µM throughout.

`O=C(Nc1ccc(Br)cc1)Nc1nn(C(=O)Nc2ccc(Br)cc2)c2ccccc12`: the GI50 in the test on K-562 leukemia is 7.64 µM; in the test with UO-31 renal it was over 100 µM; in the test with ACHN renal, 61.9 µM; with SF-539 CNS it was 29.3 µM; in the test on RPMI-8226 leukemia, over 51.7 µM; in the test with IGROV1 ovarian, 52.6 µM. Further, the GI50 is 40.3 µM in the test on EKVX NSCLC, 23.7 µM with SK-MEL-2 melanoma, over 70.8 µM in the test on M14 melanoma and 27.7 µM in the test on NCI-H226 lung. In addition, the TGI was over 35.6 µM in the test with K-562 leukemia; over 100 µM with UO-31 renal; over 100 µM in the test with ACHN renal; over 100 µM with SF-539 CNS; over 100 µM with RPMI-8226 leukemia; over 100 µM in the test on IGROV1 ovarian. The TGI in the test with EKVX NSCLC, in the test on SK-MEL-2 melanoma, in the test on M14 melanoma and in the test with NCI-H226 lung was over 100 µM throughout.

As to `C/C(=C(/c1ccc(O)cc1)c1ccc(Cl)cc1)c1ccccc1`, the GI50 in the test with K-562 leukemia was 0.539 µM; in the test on UO-31 renal it was 0.509 µM; in the test on ACHN renal it was 0.628 µM; in the test with SF-539 CNS, 0.545 µM; with RPMI-8226 leukemia it was 0.583 µM; in the test on IGROV1 ovarian it was 0.671 µM. For the same molecule, the GI50 was 0.698 µM in the test with EKVX NSCLC, 0.659 µM in the test with SK-MEL-2 melanoma, 0.654 µM in the test on M14 melanoma and 2.75 µM with NCI-H226 lung. Also, the TGI in the test with K-562 leukemia was determined as 2.83 µM; in the test with UO-31 renal it was 1.57 µM; with ACHN renal, 1.8 µM; in the test on SF-539 CNS, 1.25 µM; in the test with RPMI-8226 leukemia, 1.69 µM; in the test with IGROV1 ovarian, 2.22 µM. Moreover, the TGI in the test with EKVX NSCLC was found to be 2.12 µM; in the test on SK-MEL-2 melanoma it was 1.81 µM; in the test on M14 melanoma, 1.93 µM; with NCI-H226 lung it was 7.9 µM.

Take `CC1=C(/C=C/C(C)=C/C=C/C(C)=C/C=C/C=C(C)/C=C/C=C(C)/C=C/C2=C(C)C(=O)C(O)CC2(C)C)C(C)(C)CC(O)C1=O` (configuration not stated): the TGI in the test with K-562 leukemia, in the test on UO-31 renal, with ACHN renal, in the test on SF-539 CNS, with RPMI-8226 leukemia and in the test with IGROV1 ovarian was over 100 µM each time. Moreover, the TGI in the test with EKVX NSCLC, in the test with SK-MEL-2 melanoma, with M14 melanoma and in the test on NCI-H226 lung was over 100 µM in each case.

For `CCOC(=O)C1=C(Nc2ccc(Cl)c(Cl)c2)OC/C1=N\NC(=O)Cc1ccccc1`, the TGI in the test with K-562 leukemia, in the test on UO-31 renal, in the test with SF-539 CNS, in the test on RPMI-8226 leukemia, in the test on IGROV1 ovarian and in the test with EKVX NSCLC was over 100 µM throughout. For the same molecule, the TGI in the test with SK-MEL-2 melanoma, with M14 melanoma and with NCI-H226 lung was over 100 µM throughout.

On to `C[C@]12CC[C@@H](OC(=O)N(CCCl)N=O)C[C@@H]1CC[C@@H]1[C@@H]2CC[C@]2(C)C(=O)CC[C@@H]12`, for which the TGI in the test on K-562 leukemia was over 100 µM; in the test on UO-31 renal it was 18.1 µM; with ACHN renal it was 13.8 µM; in the test with SF-539 CNS, 13.4 µM; with RPMI-8226 leukemia it was over 50.8 µM; with IGROV1 ovarian, 24 µM. In addition, the TGI in the test with EKVX NSCLC is over 43.7 µM; with SK-MEL-2 melanoma, 38 µM; in the test on M14 melanoma, 44.9 µM; in the test with NCI-H226 lung, 31.4 µM. The GI50 with UO-31 renal is 4.22 µM; with ACHN renal, 0.487 µM; in the test with SF-539 CNS it was 0.33 µM; in the test with RPMI-8226 leukemia, 14.8 µM; with IGROV1 ovarian, 3.75 µM; with EKVX NSCLC it was 6.5 µM. Also, the GI50 in the test on SK-MEL-2 melanoma is 17.1 µM; with M14 melanoma, 14.7 µM; with NCI-H226 lung, 14.6 µM.

Turning to `CCCCCCNC(=O)Oc1ccc(/C(=C(/C)Cc2ccc(OC)cc2)c2ccc(OCCN(C)C)cc2)cc1`, the GI50 was 1.1 µM in the test on K-562 leukemia; 3.87 µM in the test on UO-31 renal; 5.43 µM in the test on ACHN renal; 5.01 µM with SF-539 CNS; 0.983 µM in the test on RPMI-8226 leukemia; 4.62 µM in the test on IGROV1 ovarian. The GI50 was 4.91 µM in the test on EKVX NSCLC, 5.91 µM in the test on SK-MEL-2 melanoma, 6.18 µM in the test with M14 melanoma and 6.18 µM in the test with NCI-H226 lung. In addition, the TGI in the test with K-562 leukemia worked out at 3.63 µM; in the test with UO-31 renal it was 8.03 µM; with ACHN renal it was 9.99 µM; in the test on SF-539 CNS it was 9.64 µM; with RPMI-8226 leukemia, 2.7 µM; in the test on IGROV1 ovarian it was 9.6 µM. The TGI amounted to 10.1 µM with EKVX NSCLC, 11 µM with SK-MEL-2 melanoma, 11.5 µM in the test with M14 melanoma and 11.9 µM in the test on NCI-H226 lung.

`Oc1c(Cl)cc(Cl)cc1Sc1cc(Cl)cc(Cl)c1O`: the GI50 is 3.17 µM and 2.91 µM in the test with K-562 leukemia; 2.46 µM and 2.02 µM with UO-31 renal; 2.92 µM and 3.27 µM in the test with ACHN renal; 3.46 µM and 3.4 µM with SF-539 CNS; 3.13 µM and 2.49 µM with RPMI-8226 leukemia; 6.03 µM and 2.97 µM with IGROV1 ovarian. Further, the GI50 with EKVX NSCLC is 3.8 µM and 2.51 µM; with SK-MEL-2 melanoma it was 2.62 µM and 1.07 µM; in the test on M14 melanoma it was 3.88 µM and 4.02 µM; in the test on NCI-H226 lung it was 3.1 µM and 2.26 µM. Moreover, the TGI with K-562 leukemia is 12 µM and 23.5 µM; with UO-31 renal it was 11.6 µM and 9.32 µM; in the test with ACHN renal, 10.7 µM and 11.3 µM; in the test with SF-539 CNS, 16.1 µM and 11.8 µM; in the test with RPMI-8226 leukemia, 8.93 µM and 16.8 µM; in the test with IGROV1 ovarian, 26.2 µM and 15 µM. In addition, the TGI in the test with EKVX NSCLC is 14.1 µM and 9.1 µM; in the test on SK-MEL-2 melanoma, 5.4 µM and 2.91 µM; in the test on M14 melanoma, 15.3 µM and 14.5 µM; with NCI-H226 lung, 15 µM and 6.76 µM.
